Target: T1, Zinc finger protein mex-5 (Caenorhabditis elegans, UniProt Q9XUB2)
T1 sequence (Q9XUB2 whole entry): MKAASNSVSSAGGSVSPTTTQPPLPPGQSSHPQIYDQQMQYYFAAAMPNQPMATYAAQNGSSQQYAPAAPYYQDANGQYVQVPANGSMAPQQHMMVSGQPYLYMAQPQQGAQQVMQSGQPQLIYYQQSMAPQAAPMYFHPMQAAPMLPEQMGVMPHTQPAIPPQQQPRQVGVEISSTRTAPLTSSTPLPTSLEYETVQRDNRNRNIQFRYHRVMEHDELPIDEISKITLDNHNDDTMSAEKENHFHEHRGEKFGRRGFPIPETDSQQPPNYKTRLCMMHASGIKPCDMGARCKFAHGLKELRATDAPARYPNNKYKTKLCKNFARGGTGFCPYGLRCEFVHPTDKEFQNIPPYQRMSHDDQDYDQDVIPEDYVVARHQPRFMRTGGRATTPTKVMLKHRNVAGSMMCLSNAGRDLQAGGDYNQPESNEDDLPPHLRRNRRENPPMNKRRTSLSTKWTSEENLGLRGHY
Assay: potency of MEX-5 RNA-binding blockers – biochemical, C. elegans, fluorescence polarization, dose response (AID 1960)

| SMILES | EC50 [µM] |
| --- | --- |
| Cc1ccc2oc(=O)c(CC(=O)c3cccs3)nc2c1 [(3Z)-3-[2-keto-2-(2-thienyl)ethylidene]-6-methyl-4H-1,4-benzoxazin-2-one] | 6.82 |
| Cc1ccc(C(=O)Cc2nc3cc(C)ccc3oc2=O)cc1 [(3Z)-3-[2-keto-2-(p-tolyl)ethylidene]-6-methyl-4H-1,4-benzoxazin-2-one] | 1.64 |
| Cc1ccc(NC=C2SC(=O)c3ccccc32)c(C)c1 [(3Z)-3-[(2,4-dimethylanilino)methylene]isobenzothiophen-1-one] | > 300 |
| O=C(Cc1nc2ccccc2n(-c2ccccc2)c1=O)c1ccccc1 [(3Z)-3-phenacylidene-1-phenyl-4H-quinoxalin-2-one] | 6.1 |
| O=C(Cc1nc2cc(Cl)ccc2oc1=O)c1cccs1 [(3Z)-6-chloranyl-3-(2-oxidanylidene-2-thiophen-2-yl-ethylidene)-4H-1,4-benzoxazin-2-one] | 153 |
| O=C(Cc1nc2cc(Cl)ccc2oc1=O)c1ccco1 [(3Z)-6-chloranyl-3-[2-(furan-2-yl)-2-oxidanylidene-ethylidene]-4H-1,4-benzoxazin-2-one] | > 300 |
| CN=c1scc(C)n1N=Cc1ccc(O)c(O)c1O [(4E)-2,3-dihydroxy-4-[[(4-methyl-2-methylimino-1,3-thiazol-3-yl)amino]methylidene]cyclohexa-2,5-dien-1-one] | 67.1 |
| Cc1c(NC=C2C(=O)N(C)C(=O)c3ccccc32)c(=O)n(-c2ccccc2)n1C [(4E)-4-[[(1,5-dimethyl-3-oxo-2-phenyl-4-pyrazolyl)amino]methylidene]-2-methylisoquinoline-1,3-dione] | > 300 |
| Cc1nnc(SC(C(=O)O)=C2C(=O)Nc3ccccc32)[nH]1 [(5-Methyl-4H-[1,2,4]triazol-3-ylsulfanyl)-[2-oxo-1,2-dihydro-indol-(3E)-ylidene]-acetic acid] | 25.2 |
| COc1ccc(OC)c(N2C(=O)NC(=O)C(=Cc3c[nH]c4ccccc34)C2=O)c1 [(5E)-1-(2,5-dimethoxyphenyl)-5-(1H-indol-3-ylmethylene)pyrimidine-2,4,6(1H,3H,5H)-trione] | > 300 |
| O=C1NC(=O)N(Cc2ccccc2Cl)C(=O)C1=CNc1ccc(F)cc1 [(5E)-1-(2-chlorobenzyl)-5-[(4-fluoroanilino)methylene]barbituric acid] | > 300 |
| Cc1c(NC=C2C(=O)NC(=O)N(Cc3ccco3)C2=O)c(=O)n(-c2ccccc2)n1C [(5E)-1-(2-furfuryl)-5-[[(3-keto-1,5-dimethyl-2-phenyl-3-pyrazolin-4-yl)amino]methylene]barbituric acid] | > 300 |
| C=c1c(C(=O)OC)c(O)c(=Cc2cccs2)n1-c1ccc(Cl)cc1 [(5E)-1-(4-chlorophenyl)-2-methyl-4-oxo-5-(thiophen-2-ylmethylidene)-3-pyrrolecarboxylic acid methyl ester] | > 300 |
| Cc1cc(C=C2C(=O)NC(=O)N(c3ccc(Cl)cc3)C2=O)c(C)n1C [(5E)-1-(4-chlorophenyl)-5-[(1,2,5-trimethyl-3-pyrrolyl)methylidene]-1,3-diazinane-2,4,6-trione] | 47.7 |
| CCOc1ccc(N2C(=O)NC(=O)C(=Cc3c[nH]c4ccccc34)C2=O)cc1 [(5E)-1-(4-ethoxyphenyl)-5-(1H-indol-3-ylmethylidene)-1,3-diazinane-2,4,6-trione] | 47 |
| O=C1NC(=O)N(CCc2ccc(F)cc2)C(=O)C1=CNCCCn1ccnc1 [(5E)-1-[2-(4-fluorophenyl)ethyl]-5-[(3-imidazol-1-ylpropylamino)methylene]barbituric acid] | > 300 |
| C=CCN1C(=O)NC(=O)C(=CNc2ccc(N(CC)CC)cc2)C1=O [(5E)-1-allyl-5-[[4-(diethylamino)anilino]methylene]barbituric acid] | 113 |
| CCN(CC)c1ccc(NC=C2C(=O)NC(=O)N(Cc3ccccc3)C2=O)cc1 [(5E)-1-benzyl-5-[[4-(diethylamino)anilino]methylene]barbituric acid] | > 300 |
| O=C1NC(=O)N(Cc2ccccc2)C(=O)C1=CNc1ccc(CN2CCOCC2)cc1 [(5E)-1-benzyl-5-[[4-(morpholin-4-ylmethyl)anilino]methylidene]-1,3-diazinane-2,4,6-trione] | > 300 |
| Cc1c(NC=C2C(=O)NC(=O)N(Cc3ccccc3)C2=O)c(=O)n(-c2ccccc2)n1C [(5E)-1-benzyl-5-[[(1,5-dimethyl-3-oxo-2-phenylpyrazol-4-yl)amino]methylidene]-1,3-diazinane-2,4,6-trione] | > 300 |
| CCCCCCN1C(=O)NC(=O)C(=CNCCCn2ccnc2)C1=O [(5E)-1-hexyl-5-[[3-(1-imidazolyl)propylamino]methylidene]-1,3-diazinane-2,4,6-trione] | > 300 |

| SMILES | EC50 [µM] |
| --- | --- |
| O=C1NC(=S)N(c2ccccc2)C(=O)C1=Cc1ccco1 [(5E)-5-(2-furanylmethylidene)-1-phenyl-2-sulfanylidene-1,3-diazinane-4,6-dione] | 254 |
| O=C1NC(=O)N(CCc2ccccc2)C(=O)C1=CNCCCn1ccnc1 [(5E)-5-[(3-imidazol-1-ylpropylamino)methylene]-1-phenethyl-barbituric acid] | > 300 |
| COc1ccc(N2C(=O)NC(=O)C(=Cc3c[nH]c4ccc(Br)cc34)C2=O)c(OC)c1 [(5E)-5-[(5-bromo-1H-indol-3-yl)methylene]-1-(2,4-dimethoxyphenyl)pyrimidine-2,4,6(1H,3H,5H)-trione] | > 300 |
| CCN(CC)CCNC=C1C(=O)NC(=O)N(CCc2ccccc2)C1=O [(5E)-5-[[2-(diethylamino)ethylamino]methylene]-1-phenethyl-barbituric acid] | > 300 |
| CN(C)CCCNC=C1C(=O)NC(=O)N(CCc2ccc(F)cc2)C1=O [(5E)-5-[[3-(dimethylamino)propylamino]methylene]-1-[2-(4-fluorophenyl)ethyl]barbituric acid] | > 300 |
| CN(C)c1ccc(NC=C2C(=O)NC(=O)N(CCC3=CCCCC3)C2=O)cc1 [(5Z)-1-[2-(cyclohexen-1-yl)ethyl]-5-[[[4-(dimethylamino)phenyl]amino]methylidene]-1,3-diazinane-2,4,6-trione] | > 300 |
| CCN(CC)CCNC=C1C(=O)NC(=O)N(Cc2ccccc2)C1=O [(5Z)-1-benzyl-5-[[2-(diethylamino)ethylamino]methylene]barbituric acid] | > 300 |
| CCOC(=O)C1C(=O)C(=Cc2cn(CC(=O)N3CCCC3)c3ccccc23)S/C1=N\c1ccccc1 (stereo unspecified) [(5Z)-2-anilino-4-keto-5-[[1-(2-keto-2-pyrrolidino-ethyl)indol-3-yl]methylene]thiophene-3-carboxylic acid ethyl ester] | 26.2 |
| C/N=C1/S/C(=C\c2ccc(N3CCCC3)c(F)c2)C(=O)N1C [(5Z)-5-(3-fluoro-4-pyrrolidino-benzylidene)-3-methyl-2-methylimino-thiazolidin-4-one] | 8.89 |
| CC1=C(C#N)C(=O)N(C)C(=O)C1=CN [(5Z)-5-(aminomethylidene)-1,4-dimethyl-2,6-dioxopyridine-3-carbonitrile] | > 300 |
| C=CCN1C(=O)NC(=O)C(=CCC=Nc2ccccc2)C1=O [(5Z)-5-[(E)-3-phenylazanylprop-2-enylidene]-1-prop-2-enyl-1,3-diazinane-2,4,6-trione] | > 300 |
| COc1cccc(CN=Nc2ncnc(N)c2[N+](=O)[O-])c1OC [(6-amino-5-nitro-pyrimidin-4-yl)-[(2,3-dimethoxybenzylidene)amino]amine] | > 300 |
| C=CCc1cccc(C=Nn2cnnc2)c1O [(6E)-2-allyl-6-[(1,2,4-triazol-4-ylamino)methylene]cyclohexa-2,4-dien-1-one] | 238 |
| COc1ccc(N=Cc2cc3c(cc2O)OC(=N)C(C#N)C3c2ccccc2)cc1 (stereo unspecified) [(6E)-2-amino-6-[(4-methoxyanilino)methylidene]-7-oxo-4-phenyl-4H-1-benzopyran-3-carbonitrile] | > 300 |
| Cc1n[nH]c(C)c1Sc1ccccc1/N=C/C1C=C(Cl)C=C([N+](=O)[O-])C1=O (stereo unspecified) [(6E)-4-chloranyl-6-[[[2-[(3,5-dimethyl-1H-pyrazol-4-yl)sulfanyl]phenyl]amino]methylidene]-2-nitro-cyclohexa-2,4-dien-1-one] | 7.57 |
| CCOc1cc(C=C2C(=N)N3N=C(S(C)(=O)=O)SC3=NC2=O)ccc1OCCOc1cccc(OC)c1 [(6E)-6-[[3-ethoxy-4-[2-(3-methoxyphenoxy)ethoxy]phenyl]methylidene]-5-imino-2-methylsulfonyl-[1,3,4]thiadiazolo[3,2-a]pyrimidin-7-one] | 221 |
| C=CC1=C(C(=O)O)N2C(=O)[C@@H](NC(=O)C(N=O)c3csc(N)n3)[C@H]2SC1 (stereo partly drawn) [(6R,7R)-7-[[2-(2-azanyl-1,3-thiazol-4-yl)-2-hydroxyimino-ethanoyl]amino]-3-ethenyl-8-oxidanylidene-5-thia-1-azabicyclo[4.2.0]oct-2-ene-2-carboxylic acid] | 33.3 |
| CCn1nc(C)c(C=C2CCCC3=C2OC(=N)C(C#N)C3c2c(C)nn(CC)c2C)c1C (stereo unspecified) [(8E)-2-amino-4-(1-ethyl-3,5-dimethyl-1H-pyrazol-4-yl)-8-[(1-ethyl-3,5-dimethyl-1H-pyrazol-4-yl)methylene]-5,6,7,8-tetrahydro-4H-chromene-3-carbonitrile] | 51.8 |
| CCOC(=O)N1CCC2=C(C#N)C(=N)C(C#N)(C#N)[C@H](c3ccsc3)[C@H]2C1 [(8R,8aR)-6-amino-5,7,7-tricyano-8-(3-thienyl)-1,3,8,8a-tetrahydroisoquinoline-2-carboxylic acid ethyl ester] | 58.7 |
| N#CC1=C2CCOC[C@@H]2[C@@H](c2ccsc2)C(C#N)(C#N)C1=N [(8R,8aR)-6-amino-8-(3-thienyl)-1,3,8,8a-tetrahydroisochromene-5,7,7-tricarbonitrile] | > 300 |

Source: BindingDB's records for doi:10.7270/Q2D798VP (Broad Institute, 2009)
